The values that follow are results of earlier work, collected in patent US20070196413A1, “Surfactant enhanced quick release pesticide granules” (priority 2003, published 2007).

Where two headings read alike, the source gives them in different places.

As for `CNC(=O)CSP(=S)(OC)OC` [Cygon, dimethoate], the “Time to lose 50 percent of pest control power” value (mixed in water of pH 9) is 48 min and the “Time to lose 50 percent of pest control power” value (pH of 6) was 720 min.
